Patent US20210364497A1, “IFN-beta Reporter System for Primary Cells” (UNIVERSITY OF MIAMI, priority 2018, published 2021)

Tested on: Human IFNβ promoter
Experiment: GLuc/SEAP dual reporter assay of the IFNβ promoter in hTERT-pIFNβ-GLuc cells
Type: cell-based
Conditions: FIG. 3B; hTERT-pIFNB-Gluc cells treated, 3 μg/ml, 24 hours
Experimental: Human IFNβ promoter (sequence in FIG. 1) was cloned into Lentiviral vector pEZX-LvPG04 at GeneCopoeia. Lentiviral plasmid was co-transfected with LentiViral Package System (LENT-PACT™) into 293T cells using Lipofectamine 2000. 293T medium containing Lentiviral particles was collected 48 hours post transfection, filtered through 0.2 μM filter, and transduced to pre-seeded hTERT cells in the presence of 10 μg/ml polybrene. Transduction was repeated twice in 2 consecutive days. 48 hours after the last transduction, hTERT cells were selected by 2 μg/ml puromycin for 4 weeks. Single colonies of transduced hTERT cells were puromycin selected, and expanded for IENβ promoter-luciferase assay validation.
To test the establishment of GLuc/SEAP-ρIENs1 reporter system, hTERT clones were mock treated (lipo) or transfected with synthetic double-stranded DNA (dsDNA). hTERT-ρIENβ-GLuc cells were transfected with synthetic 90-mer double-stranded DNA (dsDNA90) at 3 μg/ml using Lipofectamine 2000. 24 hours later, cell media was collected and analyzed for GLuc and SEAP activity using the Secrete-Pair Dual Luminescence Assay Kits (GeneCopoeia).
In additional experiments, hTERT-pIFNB-Gluc cells were treated with LPS1 (1 μg/ml) or transfected with dsDNA90 (3 μg/ml) or 2′-3′ cGAMP (3 μg/ml) for 24 hours. […]

## poly I:C
  GLuc expression (Gluc activity normalized by SEAP internal control): activated
